Measured values as given in patent US20220033407A1, “N-(pyridin-2-ylsulfonyl)cyclopropanecarboxamide Derivatives and their Use in the Treatment of Disease” (NOVARTIS AG, priority 2018, published 2022).

Assays:
delF508-CFTR-HRP = target: T1, delF508-CFTR-HRP (Homo sapiens, UniProt P13569, DEL508-508); assay: Measurement of delF508-CFTR-HRP surface expression in CFBE41o- cells (HRP luminescence); assay type: cell-based; details: for Emax: CFBE41o-, read-out: DelF508-CFTR-HRP Amax %; for EC50: mean of at least two replicates;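 as to DelF508-CFTR-HRP Amax %: percent efficacy relative to a reference CFTR corrector compound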
T1 construct: expressed in transfected cells
How it was run: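 Stably transfected CFBE41o- cells carrying HRP in the fourth extracellular loop of delF508-CFTR, induced with 500 ng/mL doxycycline for 48 h, then compound-treated 24 h at 37° C (10-point, 3-fold, top 10 μM). Surface HRP detected by luminescent substrate; EC50 from logistic fit, triplicates, normalized to lowest-concentration median.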

delF508-CFTR = target: T2, delF508-CFTR (Homo sapiens, UniProt P13569, DEL508-508); assay: delF508-CFTR functional activity in primary human bronchial epithelial cells (HBECs), Multi-Transepithelial Clamp Circuit (MTECC-24) assay, equivalent short circuit current; assay type: cell-based; details: primary CF HBECs; for MTECC24 CFHBEC-Amax %: relative to reference combination 2 μM 3-(6-(1-(2,2-difluorobenzo[d][1,3]dioxol-5-yl)cyclopropane-1-carboxamido)-3-methylpyridin-2-yl)benzoic acid (24 h) + 0.5 μM N-(2,4-di-tert-butyl-5-hydroxyphenyl)-4-oxo-1,4-dihydroquinoline-3-carboxamide; for EC50: test compound added 24 h before assay, potentiator (S)-3-amino-6-methoxy-N-(3,3,3-trifluoro-2-hydroxy-2-methylpropyl)-5-(trifluoromethyl)picolinamide present at assay, mean of at least two replicates, read-out: MTECC24 CFHBEC-EC50
T2 construct: functional activity of the CFTR channel (Chloride ion transport) in patient derived primary human bronchial epithelial cells; host or cells: patient-derived primary human bronchial epithelial cells (HBECs), delF508-CFTR
How it was run: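 Patient-derived delF508 HBECs, grown at air-liquid interface about two weeks, were corrected with compound basolaterally for 24 h. Compound was then re-added apically and basolaterally in HEPES pH7.4 assay medium, with sequential modulators including forskolin and the picolinamide potentiator. Ieq was recorded, normalised to 0.1% DMSO wells, and EC50 fitted from 10-point curves.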

T1 sequence (P13569 with tags, fused parts or gaps DEL508-508): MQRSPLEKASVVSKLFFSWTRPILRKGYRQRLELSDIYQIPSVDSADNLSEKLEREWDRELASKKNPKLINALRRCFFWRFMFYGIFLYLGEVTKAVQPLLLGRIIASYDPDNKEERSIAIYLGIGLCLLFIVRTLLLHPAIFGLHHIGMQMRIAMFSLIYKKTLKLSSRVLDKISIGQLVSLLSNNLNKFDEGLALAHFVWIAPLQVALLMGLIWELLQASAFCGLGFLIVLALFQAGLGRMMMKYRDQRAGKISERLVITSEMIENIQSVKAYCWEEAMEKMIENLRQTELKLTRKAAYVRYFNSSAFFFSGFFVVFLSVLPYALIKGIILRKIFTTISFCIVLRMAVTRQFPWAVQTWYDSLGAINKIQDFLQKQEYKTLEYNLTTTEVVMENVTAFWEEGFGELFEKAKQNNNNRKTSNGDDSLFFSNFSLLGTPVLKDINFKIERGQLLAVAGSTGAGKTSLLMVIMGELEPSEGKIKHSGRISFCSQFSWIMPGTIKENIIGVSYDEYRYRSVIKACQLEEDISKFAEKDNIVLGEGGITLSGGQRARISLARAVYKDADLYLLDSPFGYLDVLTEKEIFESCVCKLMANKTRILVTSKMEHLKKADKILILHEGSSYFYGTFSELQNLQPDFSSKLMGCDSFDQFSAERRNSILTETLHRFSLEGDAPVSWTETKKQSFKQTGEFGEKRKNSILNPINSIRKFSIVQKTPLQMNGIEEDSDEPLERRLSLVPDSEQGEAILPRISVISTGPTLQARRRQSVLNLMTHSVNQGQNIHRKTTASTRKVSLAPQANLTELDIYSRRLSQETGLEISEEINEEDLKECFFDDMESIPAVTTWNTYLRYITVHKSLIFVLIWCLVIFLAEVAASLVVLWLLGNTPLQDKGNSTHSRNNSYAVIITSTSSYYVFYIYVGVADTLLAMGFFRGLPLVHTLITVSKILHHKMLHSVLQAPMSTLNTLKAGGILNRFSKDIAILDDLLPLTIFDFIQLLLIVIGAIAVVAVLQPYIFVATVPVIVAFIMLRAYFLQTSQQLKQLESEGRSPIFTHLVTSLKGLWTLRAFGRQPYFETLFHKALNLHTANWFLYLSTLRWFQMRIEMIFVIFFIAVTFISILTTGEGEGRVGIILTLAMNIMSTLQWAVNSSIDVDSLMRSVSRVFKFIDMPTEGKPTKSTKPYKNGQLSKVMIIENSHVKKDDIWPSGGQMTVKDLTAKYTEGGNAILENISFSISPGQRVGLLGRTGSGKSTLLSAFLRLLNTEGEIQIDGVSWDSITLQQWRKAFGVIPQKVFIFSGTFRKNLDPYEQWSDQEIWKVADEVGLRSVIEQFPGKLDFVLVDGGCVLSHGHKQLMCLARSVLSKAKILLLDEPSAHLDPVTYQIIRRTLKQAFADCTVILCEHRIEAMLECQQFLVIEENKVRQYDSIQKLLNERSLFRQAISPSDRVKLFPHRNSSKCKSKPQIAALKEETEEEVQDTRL
T2 sequence (P13569 with tags, fused parts or gaps DEL508-508): as above

| SMILES | Emax (delF508-CFTR-HRP) [%] | EC50 (delF508-CFTR-HRP) [nM] | MTECC24 CFHBEC-Amax % (delF508-CFTR) [%] | EC50 (delF508-CFTR) [nM] |
| --- | --- | --- | --- | --- |
| Cc1ccc(C2CCCCC2)c(OC2(C(=O)NS(=O)(=O)c3nc(N)ccc3F)CC2)c1 [Example 1-7, N-((6-Amino-3-fluoropyridin-2-yl)sulfony)-1-(2-cyclohexyl-5-methylphenoxy)cyclopropane-1-carboxamide] | 109 | 2830 | 54 | 40 |
| O=C(NS(=O)(=O)c1cccc(N2CC[C@H](O)C2)n1)C1(Oc2cc(Cl)ccc2N2CCC3(CCCCC3)CC2)CC1 [Example 9-14, (S)-1-(5-Chloro-2-(3-azaspiro[5.5]undecan-3-yl)phenoxy)-N-((6-(3-hydroxypyrrolidin-1-yl)pyridin-2-yl)sulfonyl)cyclopropanecarboxamide] | 279 | 700 | 170.7 | 454 |
| Cc1ccc(C2CCCCC2)c(OC2(C(=O)NS(=O)(=O)c3cccc(N(C)CC(C)O)n3)CC2)c1 (stereo not shown) [Example 2-48] | 620 | 2020 | 93 | 4 |
| Cc1ccc(C2CCCCC2)c(OC2(C(=O)NS(=O)(=O)c3cccc(N4CCC(CO)(NC(=O)OC(C)(C)C)CC4)n3)CC2)c1 [Example 2-22, Tert-butyl (1-(6-(N-(1-(2-cyclohexyl-5-methylphenoxy)cyclopropanecarbonyl)sulfamoyl)pyridin-2-yl)-4-(hydroxymethyl)piperidin-4-yl)carbamates] | 674 | 2240 | 90 | 17 |
| Cc1ccc(C2CCCC(F)(F)C2)c(OC2(C(=O)NS(=O)(=O)c3cccc(N)n3)CC2)c1 (stereo not shown) [Example 1-5, N-((6-Aminopyridin-2-yl)sulfonyl)-1-(2-(3,3-difluorocyclohexyl)-5-methylphenoxy)cyclopropane-1-carboxamide] | 179 | 3960 | 94 | 312 |
| O=C(NS(=O)(=O)c1cccc(N2CC[C@H](O)C2)n1)C1(Oc2cc(Cl)ccc2C2CC3(CCC3)C2)CC1 [Example 7-3, (S)-1-(5-chloro-2-(spiro[3.3]heptan-2-yl)phenoxy)-N-((6-(3-hydroxypyrrolidin-1-yl)pyridin-2-yl)sulfonyl)cyclopropanecarboxamide] | 794 | 1020 | 135.1 | 132 |
| Cc1ccc(-c2cccc(C(F)(F)F)c2)c(OC2(C(=O)NS(=O)(=O)c3cccc(N4CC[C@H](O)C4)n3)CC2)c1 [Example 5-1, (S)-N-((6-(3-Hydroxypyrrolidin-1-yl)pyridin-2-yl)sulfonyl)-1-((4-methyl-3′-(trifluoromethyl)-[1,1′-biphenyl]-2-yl)oxy)cyclopropane-1-carboxamide] | 503 | 1950 | 88 | 16 |
| COc1ccc(C2CCC(F)(F)CC2)c(OC2(C(=O)NS(=O)(=O)c3cccc(N4CCC[C@H](CO)C4)n3)CC2)c1 [Example 3-7, (S)-1-(2-(4,4-Difluorocyclohexyl)-5-methoxyphenoxy)-N-((6-(3-(hydroxymethyl)piperidin-1-yl)pyridin-2-yl)sulfonyl)cyclopropane-1-carboxamide] | 258 | 3410 | 51 | 35 |
| CO[C@H]1CCN(c2cccc(S(=O)(=O)NC(=O)C3(Oc4cc(Cl)ccc4C4CC5(CCC5)C4)CC3)n2)C1 [Example 7-14, (S)-1-(5-Chloro-2-(spiro[3.3]heptan-2-yl)phenoxy)-N-((6-(3-methoxypyrrolidin-1-yl)pyridin-2-yl)sulfonyl)cyclopropane-1-carboxamide] | 496 | 1100 | 128.1 | 317 |
| Cc1ccc(-c2ccc(C(F)(F)F)cc2)c(OC2(C(=O)NS(=O)(=O)c3cccc(N4CC[C@H](O)C4)n3)CC2)c1 [Example 5-10, (S)—N-((6-(3-Hydroxypyrrolidin-1-yl)pyridin-2-yl)sulfonyl)-1-((4-methyl-4′-(trifluoromethyl)-[1,1′-biphenyl]-2-yl)oxy)cyclopropane-1-carboxamide] | 416 | 1210 | 114 | 26 |
| Cc1ccc(C2CCCCC2)c(OC2(C(=O)NS(=O)(=O)c3cccc(N4CCC(N)(CF)CC4)n3)CC2)c1 [Example 2-19, N-((6-(4-Amino-4-(fluoromethyl)piperidin-1-yl)pyridin-2-yl)sulfonyl)-1-(2-cyclohexyl-5-methylphenoxy)cyclopropanecarboxamide] | 326 | 2610 | 120 | 61 |
| Cc1ccc(C2CCCC2)c(OC2(C(=O)NS(=O)(=O)c3cccc(NC[C@@H](C)O)n3)CC2)c1 [Example 4-6, (R)-1-(2-Cyclopentyl-5-methylphenoxy)-N-((6-((2-hydroxypropyl)amino)pyridin-2-yl)sulfonyl)cyclopropane-1-carboxamide] | 537 | 3350 | 78 | 12 |
| O=C(NS(=O)(=O)c1cccc(N2CC[C@H](O)C2)n1)C1(Oc2cc(Cl)ccc2N2CCC3(CCCC3)CC2)CC1 [Example 9-13, (S)-1-(5-Chloro-2-(8-azaspiro[4.5]decan-8-yl)phenoxy)-N-((6-(3-hydroxypyrrolidin-1-yl)pyridin-2-yl)sulfonyl)cyclopropanecarboxamide] | 638 | 1040 | 128.4 | 171 |
| Cc1ccc(OCc2ccccc2)c(OC2(C(=O)NS(=O)(=O)c3cccc(N4CCO[C@@H](C)C4)n3)CC2)c1 [Example 6-1, (S)-1-(2-(Benzyloxy)-5-methylphenoxy)-N-((6-(2-methylmorpholino)pyridin-2-yl)sulfonyl)cyclopropanecarboxamide] | 230 | 3870 | 67 | 153 |
| COC(=O)C1(C)CCN(c2cccc(S(=O)(=O)NC(=O)C3(Oc4cc(C)ccc4C4CCCCC4)CC3)n2)CC1 [Example 2-3, Methyl 1-(6-(N-(1-(2-cyclohexyl-5-methylphenoxy)cyclopropanecarbonyl)sulfamoyl)pyridin-2-yl)-4-methylpiperidine-4-carboxylate] | 337 | 460 | 79 | 5 |
| Cc1ccc(C2CCCCC2)c(OC2(C(=O)NS(=O)(=O)c3cccc(N4CCC(C)(N)CC4)n3)CC2)c1 [Example 2-9, N-((6-(4-Amino-4-methylpiperidin-1-yl)pyridin-2-yl)sulfonyl)-1-(2-cyclohexyl-5-methylphenoxy)cyclopropanecarboxamide] | 253 | 2570 | 121 | 103 |
| Cc1ccc(C2CCCCC2)c(OC2(C(=O)NS(=O)(=O)c3cccc(N4CCO[C@@H](C)C4)n3)CC2)c1 [Example 2-52, (S)-1-(2-Cyclohexyl-5-methylphenoxy)-N-((6-(2-methylmorpholino)pyridin-2-yl)sulfonyl)cyclopropane-1-carboxamide] | 416 | 1290 | 75 | 7 |
| Cc1ccc(C2CCCCC2)c(OC2(C(=O)NS(=O)(=O)c3cccc(N4CCOC[C@@H]4C)n3)CC2)c1 [Example 2-2, (S)-1-(2-Cyclohexyl-5-methylphenoxy)-N-((6-(3-methylmorpholino)pyridin-2-yl)sulfonyl)cyclopropanecarboxamide] | 561 | 1330 | 59 | 2 |
| Cc1ccc(C2CCCCC2)c(OC2(C(=O)NS(=O)(=O)c3cccc(N4CCN(C(=O)OC(C)(C)C)CC4)n3)CC2)c1 [Example 2-34, Tert-butyl 4-(6-(N-(1-(2-cyclohexyl-5-methylphenoxy)cyclopropanecarbonyl)sulfamoyl)pyridin-2-yl)piperazine-1-carboxylate] | 366 | 1100 | 57 | 15 |
| Cc1ccc(N2CCC3(CC2)CC3)c(OC2(C(=O)NS(=O)(=O)c3cccc(N4CC[C@H](O)C4)n3)CC2)c1 [Example 9-11, (S)—N-((6-(3-Hydroxypyrrolidin-1-yl)pyridin-2-yl)sulfonyl)-1-(5-methyl-2-(6-azaspiro[2.5]octan-6-yl)phenoxy)cyclopropanecarboxamide] | 580 | 1640 | 133.4 | 396 |
| Cc1ccc(C2CC=CCC2)c(OC2(C(=O)NS(=O)(=O)c3cccc(N4CC(C)(O)C4)n3)CC2)c1 (stereo not shown) [Example 4-22, N-((6-(3-hydroxy-3-methylazetidin-1-yl)pyridin-2-yl)sulfonyl)-1-((4-methyl-1′,2′,3′,6′-tetrahydro-[1,1′-biphenyl]-2-yl)oxy)cyclopropanecarboxamide] | 453 | 3670 | 62 | 12 |
| C[C@@H](CO)Nc1cccc(S(=O)(=O)NC(=O)C2(Oc3cc(F)ccc3C3CCC(F)(F)CC3)CC2)n1 [Example 3-2] | 172 | 4420 | 48 | 371 |
